# Measured values as given in PMC7407672 (Cells, 2020).
# What was measured:
# GAL4(DBD)-mouse PXR(LBD) = molecular target: T1, GAL4(DBD)-mouse PXR(LBD) (Mus musculus, UniProt O54915); assay: luciferase reporter transactivation in HG5LN GAL4-mPXR cells; type: cell-based; details: dabrafenib, SR12813, PCN 3 μM; clotrimazol 1 μM
# T1 construct: together with the pSG5-GAL4(DBD)-h/m/zfPXR(LBD)-puro plasmids; expressed in transfected cells; host or cells: HeLa (HG5LN)
# T1 sequence (O54915 143-430 limits assumed): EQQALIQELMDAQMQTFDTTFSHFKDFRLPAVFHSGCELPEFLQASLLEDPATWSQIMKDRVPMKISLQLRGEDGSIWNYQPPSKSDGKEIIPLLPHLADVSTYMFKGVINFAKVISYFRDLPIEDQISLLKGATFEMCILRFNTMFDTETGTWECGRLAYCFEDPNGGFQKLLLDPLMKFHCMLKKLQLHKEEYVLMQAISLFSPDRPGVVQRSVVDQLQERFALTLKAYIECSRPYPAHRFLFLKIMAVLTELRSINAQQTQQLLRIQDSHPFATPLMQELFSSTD
# Source text: The different reporter cell lines used in this study are summarized in Supplementary Table S1. HG5LN GAL4-m/zfPXR cells were obtained as previously reported for HG5LN GAL4-hPXR cells. Briefly, Hela cells were stably transfected with the GAL4RE5-βGlob-Luc-SVNeo plasmid alone or together with the pSG5-GAL4(DBD)-h/m/zfPXR(LBD)-puro plasmids leading to the HG5LN and HG5LN-h/m/zfPXR cell lines, respectively. HG5LN GAL4-hCAR and GAL4-hCAR-APYLT cells were obtained in the same way.
# LS174T-hPXR cells = assay: LS174T-hPXR proliferation assay (P-screen) after SPA70 pretreatment; type: cell-based, human; details: pretreated with SPA70 100 nM; 7 days; read-out: potency (EC50) on proliferation
# Protocol: We developed a new proliferation test that we called the P-screen to measure the effects of compounds with PXR activity on the growth of LS174T-hPXR cells. This test uses the same principle as that for E-screen that was used for measuring the effects of estrogens on the proliferation of MCF-7 breast cancer cells. […] The medium was then removed, and cells were treated with increasing concentrations of the different compounds for 7 days. Medium was removed, and 0.1 mL of MTT solution (0.5 mg/mL) was added to each well. The MTT-containing medium was removed 4 h after incubation, and DMSO was added to each well. After shaking, the plates were read in absorbance at 540 nm. Results were expressed as percentage of proliferation with respect to the hormone-free control (100%). Data were obtained by dose–response curves plotted as percentage of proliferation as a function of concentrations.
# [1] = tested on: hPXR target genes (CYP3A4, ABCG2, FGF19) in LS174T-hPXR cells; assay: RT-qPCR of hPXR target genes in LS174T-hPXR cells; type: cell-based, human
# Protocol: (§1) Total RNA was isolated and purified using “Zymo Research—Quick RNA mini prep” kit for LS174T-hPXR cells and using Trizol reagent (Thermo Fisher Scientific, Illkirch-Graffenstaden, France) for primary human hepatocytes and HepaRG according to the manufacturer’s protocol. The concentration and the purity of isolated RNA were measured using a spectrophotometer NanoVue (GE health care life sciences, Velizy-Villacoublay, France). Reverse transcription was performed with the qScript cDNA SuperMix (VWR, Fontenay-sous-Bois, France) for LS174-hPXR and HepaRG cells and using a random hexaprimer and the MMLV Reverse Transcriptase Kit (Life Technologies) for primary human hepatocytes. Quantitative polymerase chain reactions were performed using SYBR green (Qiagen, Les Ulis, France) and specific primers (Supplementary Table S2) with the LightCycler®-480 real-time PCR system (Roche Diagnostics, Meylan, France). The relative amount of RNA was calculated with the 2^ΔΔCT method, and gene expression was normalized using GAPDH or RPLP0. In Figure 5AB, the level of expression was compared with the mean level of the corresponding gene expression in DMSO-treated cells and expressed as n-fold ratio.
# [2] = tested on: CYP3A4 and CYP2B6 genes in primary human hepatocytes; assay: RT-qPCR of hPXR target genes in primary human hepatocytes; type: cell-based; details: three donors, 48 h
# Source text: Liver samples were obtained from the Biologic Resource Center of Montpellier University Hospital (CRB-CHUM; http://www.chumontpellier.fr; Biobank ID: BB-0033-00031), and this study benefitted from the expertise of Dr. Benjamin Rivière (hepatogastroenterology sample collection) and Dr. Edouard Tuaillon (CRB-CHUM manager). Samples were obtained from livers of adult patients who underwent liver resections for medical reasons unrelated to our research program, or from anonymous donors when the liver was considered unsuitable for organ transplantation. The use of human specimens for scientific purposes was approved by the French National Ethics Committee. Written or oral informed consent was obtained from each patient or family prior to surgery. The clinical characteristics of the liver donors are presented in Supplementary Table S2. Hepatocytes were isolated by using a two-step perfusion protocol and cultured as described previously.
# as §1
Compound,activation of mouse PXR LBD (luciferase) (GAL4(DBD)-mouse PXR(LBD)),EC50 (LS174T-hPXR cells),ABCG2 expression increase ([1]; 24 h),CYP3A4 expression increase ([1]; 24 h),concentration of maximal induction of CYP3A4 expression ([1]; 24 h),FGF19 expression induction ([1]; highest concentration used (3 µM)),induction of CYP2B6 gene expression [2],induction of CYP3A4 gene expression [2]
"CC(=O)[C@H]1[C@H](C#N)C[C@H]2[C@@H]3CC=C4C[C@@H](O)CC[C@]4(C)[C@H]3CC[C@@]21C [PCN, Pregnenolone 16 alpha-carbonitrile]",Specific agonist effects,,,,,,,
CCOP(=O)(OCC)C(=Cc1cc(C(C)(C)C)c(O)c(C(C)(C)C)c1)P(=O)(OCC)OCC [SR12813],,38 nM,12 fold,190 fold,1000 nM,4 fold,significantly induce,significantly induce
